The record followed here is PMC7764243, “Alterins Produced by Oyster-Associated Pseudoalteromonas Are Antibacterial Cyclolipopeptides with LPS-Binding Activity” (Marine Drugs, 2020).

Values after ≈ are worked out from the molar mass of the structure shown. Like-named read-outs stand apart in the source and are kept apart here. *1 amine or outer side, *2 acyl side, *3 side chain or, on linkers, in order; H or OH if unused. Where a SMILES comes first, the peptide text is derived from it. Bridges are numbered along the chain shown (N, C = ends). [ ]: non-standard residue; d: D form. The star is where a group is joined. ξ: configuration not given here. Dab(3ξ-OH) = O=C([C@@H](N[*:1])C(O)CN[*:3])[*:2]; X1 = C/C=C(/N[*:1])C(=O)[*:2]; Lauroyl = CCCCCCCCCCCC(=O)*; Nonanoyl = CCCCCCCCC(=O)*; Octanoyl = CCCCCCCC(=O)*; Dab = NCC[C@H](N)C(=O)O; X2 = CCCC/C=C\CCCC(=O)* A value given as a limit tells only on which side of the number the result lay.

For one experiment, the system named is A. hydrophila CIP 7614. It is filed as cell-based, Aeromonas hydrophila. Here is the method:
(§1) Antibacterial activity was assayed against a panel of micro-organisms including human and aquaculture pathogenic bacterial species. MICs were performed and defined according to internationally recognized standards (CLSI [21]). Polymyxin B (PMB), an antibiotic CLP produced by Paenibacillus polymyxa, was used as positive control. The major produced alterins, i.e., alt_952, alt_954, alt_970 and alt_980 were assayed against the whole panel of target cells while the minor ones were only tested against a few bacterial strains (Table 2).
(§2) The bacterial strains Aeromonas caviae CIP 7616, Aeromonas hydrophila CIP 7614, Escherichia coli ML35, Escherichia coli SBS 363, Salmonella enterica CIP 8297 and Yersinia ruckeri ATCC 29473 were grown in Tryptic Soy Broth. The marine bacterial strains Vibrio crassostreaeJ2–9, Vibrio tasmaniensisLGP32, Vibrio tapetis CECT 4600 were grown in Marine Broth. All of them were cultivated at optimal temperature according to ATCC and CIP specifications. The strain Vibrio parahaemolyticus13-028A/3 was grown at 28 °C in Tryptic Soy Broth supplemented in NaCl (20 g.L^−1) according to [47]. The strains Pseudoalteromonas sp. hCg-6 and hCg-42 were cultured using a synthetic medium containing: 17.11 g sucrose, 30 g sea salts (Sigma-S9883), 7.6 g K2HPO4, 3 g KH2PO4 and 20 mL MEM 50X (Dulbecco) per liter. The cultures were grown at 18 °C for 72 h with shaking (100 rpm).
(§3) MICs were determined using broth microdilution method according to [21]. To resume, antibacterial compounds ranging from 0.1 to 100 µM were assayed against the target bacteria in mid-logarithmic phase culture (1.10^6 UFC.mL^−1) in adapted culture medium according to the strain. MICs were examined by unaided eye after a 48h-incubation time at the optimal temperature growth. The lipopeptide PMB (Sigma-P4932) was used as antibiotic control.

The test system of a further experiment is E. coli ML35. It is filed as cell-based, Escherichia coli. How it is done:
as §1, §2, §3

For a further experiment, the system named is E. coli SBS363. It is filed as cell-based, Escherichia coli. To be noted: E. coli SBS363 (short-chain LPS); broth microdilution, 0.1 to 100 µM, 1.10^6 UFC/mL, 48 h, read by unaided eye. Here is the method:
as §1, §2, §3
On the technique in general: Dilution methods test growth across graded concentrations, often in twofold steps.

The next experiment relates to P. aeruginosa ATCC 27853. It is filed as cell-based, Pseudomonas aeruginosa. Here is the method: as §1, §3
For another experiment, the system named is Pseudoalteromonas hCg-6. It is filed as cell-based, Pseudoalteromonas sp. To be noted: 48 h. How it is done:
as §1, §2, §3

The test system of another experiment is S. enterica CIP 8297. It is filed as cell-based, Salmonella enterica. To be noted: broth microdilution, 0.1 to 100 µM, 1.10^6 UFC/mL, 48 h, read by unaided eye. Here is the method:
as §1, §2, §3

The subject of a further experiment is V. harveyi ORM4. It is filed as cell-based, Vibrio harveyi. How it is done:
as §1, §3

The test system of a further experiment is V. tasmaniensis LGP 32. It is filed as cell-based, Vibrio tasmaniensis. The settings on record: 48 h. How it is done:
as §1, §2, §3

A further experiment deals with Y. ruckeri ATCC 29473. It is filed as cell-based, Yersinia ruckeri. How it is done: as §1, §2, §3
Another experiment concerns A. caviae CIP 7616. It is filed as cell-based, Aeromonas caviae. The settings on record: broth microdilution, 0.1 to 100 µM, 1.10^6 UFC/mL, 48 h, read by unaided eye. Here is the method:
as §1, §2, §3

The test system of another experiment is Pseudoalteromonas hCg-42. It is filed as cell-based, Pseudoalteromonas sp. The settings on record: 48 h. Here is the method: as §1, §2, §3
For experiment [1], the system named is V. parahaemolyticus 13-028A/3. It is filed as cell-based, Vibrio parahaemolyticus. The settings on record: broth microdilution, 0.1 to 100 µM, 1.10^6 UFC/mL, 48 h, read by unaided eye. Here is the method: as §1, §2, §3
The next experiment deals with V. tapetis CECT 4600T. It is filed as cell-based, Vibrio tapetis. Here is the method: as §1, §2, §3
The subject of a further experiment is V. tasmaniensis LGP32. The experiment is described as follows: Viability (cultivability, CFU count) in seawater. It is filed as cell-based, Vibrio tasmaniensis. How it is done: As a first step, we have measured the antimicrobial activity of alt_952, alt_954, alt_970 and alt_980 against V. tasmaniensis LGP32 in seawater after a 4 hour-long incubation. […] The effects on membrane were also investigated under the same experimental conditions using live/dead bacterial viability kit for flow cytometry (Figure 6). A net cultivability loss of V. tasmaniensis (2-log reduction) was observed when incubated with alt_954 and alt_980 indicative of a bactericidal effect (Figure 7A). In these conditions, V. tasmaniensis was much less affected by alt_970 (1-log reduction) and not by alt_952 (Figure 7A).
[…] After a 4 h-long incubation, viable bacteria were counted. Diluted samples (50 µL) in sterile seawater were spread in duplicate on appropriate medium. Cultivable bacterial concentration (CFU mL^−1) was determined after overnight incubation at optimal growth temperature.

Experiment [2] concerns Vibrio tasmaniensis LGP32. Briefly: Membrane potential, DiBAC4(3) flow cytometry. It is filed as cell-based. Here is the method: To assess alterin physiological impact on Gram-negative cells, flow cytometry analyses were implemented using Live/Dead cell viability assay and the membrane potential dye, DiBAC4(3) on V. tasmaniensis LGP32 treated as previously (i.e., […]).
The membrane potential of the target bacteria was analysed using the potential-sensitive probe Bis-1,3-Dibutylbarbituric AcideTrimethineOxonol, (DiBAC4(3), MolecularProbes). DiBAC4(3) was reconstituted in DMSO stock solution at 1mM and stocked at −20 °C until use. Samples (500 µL) were incubated with 1 µL of DiBAC4(3) stock solution for 10mn in the dark. Under the effect of depolarization cells accumulate DiBAC4(3), fluoresce bright green and can easily be detected by flow cytometry. After excitation at 488 nm cells with depolarized membrane become fluorescent and reemit at 516 nm recovery of the signal at FL1. Positive control of the initial sample is carried out with 20% alcohol.
For orientation: A flow cytometer gives signals particle by particle.

In general, MIC refers to the lowest concentration that inhibits growth of the organism. As for `C/C=C1/NC(=O)[C@@H](NC(=O)CCCCCCC)C(O)CNC(=O)[C@H](C(O)CN)NC(=O)[C@H](C(O)CN)NC(=O)[C@H](CCCNC(=N)N)NC(=O)[C@H](CC(C)C)NC(=O)[C@H](CCN)NC1=O` (stereo partly shown) [alt_926] (Octanoyl-[Dab(3ξ-OH)][X1][Dab]LR[Dab(3ξ-OH)][Dab(3ξ-OH)]; lactam 1-C), the MIC in the experiment with A. hydrophila CIP 7614 (CIP 7614, 48 h) was more than 100 µM; with E. coli ML35 (ML35, 48 h) it was 100 µM (≈ 92.7 µg/mL); against E. coli SBS363 it was 50 µM (≈ 46.4 µg/mL); against P. aeruginosa ATCC 27853 (ATCC 27853, 48 h), more than 100 µM; in the experiment on Pseudoalteromonas hCg-6, more than 100 µM; against S. enterica CIP 8297 it was 12.5 µM (≈ 11.6 µg/mL). Besides, the MIC came to 50 µM (≈ 46.4 µg/mL) in the experiment with V. harveyi ORM4 (ORM4, 48 h); 50 µM (≈ 46.4 µg/mL) in the experiment on V. tasmaniensis LGP 32; 50 µM (≈ 46.4 µg/mL) with Y. ruckeri ATCC 29473 (ATCC 29473, 48 h).

Turning to Polymyxin B [PMB, reference compound], the MIC against A. caviae CIP 7616 is recorded as 3.1 µM; against A. hydrophila CIP 7614 (A. hydrophila CIP 7614, broth microdilution, 0.1 to 100 µM, 1.10^6 UFC/mL, 48 h, read by unaided eye), 0.8 µM; in the experiment with E. coli ML35 (E. coli ML35 (long-chain LPS), broth microdilution, 0.1 to 100 µM, 1.10^6 UFC/mL, 48 h, read by unaided eye), 3.1 µM; with E. coli SBS363, 0.2 µM; against P. aeruginosa ATCC 27853 (P. aeruginosa ATCC 27853, broth microdilution, 0.1 to 100 µM, 1.10^6 UFC/mL, 48 h, read by unaided eye), 1.6 µM; in the experiment with Pseudoalteromonas hCg-42 (Pseudoalteromonas hCg-42 (producing strain), broth microdilution, 0.1 to 100 µM, 1.10^6 UFC/mL, read by unaided eye), more than 100 µM. Besides, the minimal inhibitory concentration (MIC) with Pseudoalteromonas hCg-6 (Pseudoalteromonas hCg-6 (producing strain), broth microdilution, 0.1 to 100 µM, 1.10^6 UFC/mL, read by unaided eye) was more than 100 µM; with S. enterica CIP 8297 it was 0.8 µM; in the experiment with V. harveyi ORM4 (V. harveyi ORM4, broth microdilution, 0.1 to 100 µM, 1.10^6 UFC/mL, 48 h, read by unaided eye), 25 µM; in experiment [1] it was more than 100 µM; in the experiment with V. tapetis CECT 4600T (V. tapetis CECT 4600T, broth microdilution, 0.1 to 100 µM, 1.10^6 UFC/mL, 48 h, read by unaided eye), more than 100 µM; with V. tasmaniensis LGP 32 (V. tasmaniensis LGP 32, broth microdilution, 0.1 to 100 µM, 1.10^6 UFC/mL, read by unaided eye), 3 µM. Besides, in the experiment with Y. ruckeri ATCC 29473 (Y. ruckeri ATCC 29473, broth microdilution, 0.1 to 100 µM, 1.10^6 UFC/mL, 48 h, read by unaided eye), the minimum inhibitory concentration (MIC) is 0.4 µM.

With `C/C=C1/NC(=O)[C@@H](NC(=O)CCCCCCCCCCC)C(O)CNC(=O)[C@H](C(O)CN)NC(=O)[C@H](C(O)CN)NC(=O)[C@H](CCCNC(=N)N)NC(=O)[C@H](CC(C)C)NC(=O)[C@H](CCN)NC1=O` (stereo partly shown) [alt_982] (Lauroyl-[Dab(3ξ-OH)][X1][Dab]LR[Dab(3ξ-OH)][Dab(3ξ-OH)]; lactam 1-C), the minimum inhibitory concentration (MIC) turned out to be 6.3 µM (≈ 6.19 µg/mL) in the experiment on E. coli SBS363 and 12.5 µM (≈ 12.3 µg/mL) against Y. ruckeri ATCC 29473 (ATCC 29473, 48 h).

On to `C/C=C1/NC(=O)[C@@H](NC(=O)CCC/C=C\CCCC)C(O)CNC(=O)[C@H](C(O)CN)NC(=O)[C@H](C(O)CN)NC(=O)[C@H](CCCNC(=N)N)NC(=O)[C@H](CC(C)C)NC(=O)[C@H](CCN)NC1=O` (stereo partly shown) [alt_952] (X2-[Dab(3ξ-OH)][X1][Dab]LR[Dab(3ξ-OH)][Dab(3ξ-OH)]; lactam 1-C), for which the MIC in the experiment with E. coli ML35 (ML35, 48 h) is 25 µM (≈ 23.8 µg/mL); in the experiment on E. coli SBS363, 0.8 µM (≈ 0.763 µg/mL); against P. aeruginosa ATCC 27853 (ATCC 27853, 48 h), 50 µM (≈ 47.7 µg/mL); against Pseudoalteromonas hCg-42, more than 100 µM; with Pseudoalteromonas hCg-6 it was more than 100 µM; against S. enterica CIP 8297, 6.25 µM (≈ 5.96 µg/mL). The MIC with V. harveyi ORM4 (ORM4, 48 h) is 12.5 µM (≈ 11.9 µg/mL); with V. tapetis CECT 4600T (CECT 4600, 48 h) it was more than 100 µM; against V. tasmaniensis LGP 32, 50 µM (≈ 47.7 µg/mL); against Y. ruckeri ATCC 29473 (ATCC 29473, 48 h) it was 0.4 µM (≈ 0.381 µg/mL). The “cultivability loss of V. tasmaniensis (log reduction of CFU)” value with V. tasmaniensis LGP32 (20 µM, 4 h incubation in sterile seawater, inoculum 1.10^6 UFC/mL, plated in duplicate) was “no antibacterial effect”. Also, in the experiment on V. tasmaniensis LGP32 (300 µM, 4 h in seawater (data not shown)), the “cultivability loss of V. tasmaniensis” value was “identical to those observed using alt_954 and alt_980 at 20 µM”. Further, the “cells with depolarized membrane” value in [2] (20 µM, 4 h in sterile seawater) is given as “around 55%”. This molecule showed a cells depolarization in [2] (300 µM, 4 h in seawater) of 100%.

`C/C=C1/NC(=O)[C@@H](NC(=O)CCCCCCCC)C(O)CNC(=O)[C@H](C(O)CN)NC(=O)[C@H](C(O)CN)NC(=O)[C@H](CCCNC(=N)N)NC(=O)[C@H](CC(C)C)NC(=O)[C@H](CCN)NC1=O` (stereo partly shown) [alt_940] (Nonanoyl-[Dab(3ξ-OH)][X1][Dab]LR[Dab(3ξ-OH)][Dab(3ξ-OH)]; lactam 1-C): the MIC in the experiment with A. hydrophila CIP 7614 (CIP 7614, 48 h) is listed as 25 µM (≈ 23.5 µg/mL); against E. coli ML35 (ML35, 48 h), 50 µM (≈ 47.1 µg/mL); in the experiment with E. coli SBS363, 25 µM (≈ 23.5 µg/mL); with P. aeruginosa ATCC 27853 (ATCC 27853, 48 h) it was 50 µM (≈ 47.1 µg/mL); in the experiment with Pseudoalteromonas hCg-6, more than 100 µM; with V. harveyi ORM4 (ORM4, 48 h), 6.25 µM (≈ 5.88 µg/mL). Also, the MIC in the experiment on V. tasmaniensis LGP 32 is 6.25 µM (≈ 5.88 µg/mL); against Y. ruckeri ATCC 29473 (ATCC 29473, 48 h), 6.25 µM (≈ 5.88 µg/mL).
